Laboratory results taken from patent US20140213558A1, “TREATMENT OF INFLAMMATORY DISEASE OR DISORDER AND COMPOSITIONS THEREFOR” (CREDE OILS (PTY) LTD, priority 2011, published 2014).

Experiment: Comparison of pure TQ with Nigella sativa oil
Conditions: administration of pure TQ
Procedure: Nevertheless, some embodiments of the invention may include N. sativa oil and/or its essential oil, either as the sole or primary active or in combination with EPA and/or GLA. […] Thus, N. sativa essential oil may provide a therapeutic or prophylactic effect in some embodiments of the invention, particularly in those embodiments in which one or more other actives (e.g., EPA, GLA, etc.) are also administered. Similarly, embodiments of the invention may include derivatives and/or precursors of TQ, including polymers of TQ.

CC1=CC(=O)C(C(C)C)=CC1=O [TQ, 2-isopropyl-5-methylbenzo-1,4-quinone]
effectiveness relative to Nigella sativa oil: more effective than the administration of Nigella sativa oil
